According to patent publication US9113629B2, “4-amino-6-(4-substituted-phenyl)-picolinates and 6-amino-2-(4-substituted-phenyl)-pyrimidine-4-carboxylates and their use as herbicides” (DOW AGROSCIENCES LLC, priority 2013, dated 2015):

The molecules below were run on Key Broadleaf Weed and Crop Species (assay: Post-emergent Test II herbicidal activity (Table 5)). Conditions: post-emergence, 336 h; ABUTH: velvetleaf (Abutilon theophrasti); application rate 70 g ai/ha; 14 days after application; read-out: Visual Growth Reduction (%) 14 Days After Application, ABUTH.
Format: in vivo
Method in brief: (§1)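 Plants grown in Metro-Mix 360 (pH 6.0–6.8) in a greenhouse (~15 h photoperiod, 23–29 °C day) to first or second true leaf stage, then sprayed with compound in acetone/DMSO/aqueous crop-oil-surfactant carrier at 187 L/ha by track sprayer. Injury visually scored 0–100% versus untreated plants after 14 d.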
Molecule COC(=O)c1nc(-c2ccc(Br)c(F)c2F)cc(N)c1Cl [Compound 114, methyl 4-amino-6-(4-bromo-2,3-difluorophenyl)-3-chloropicolinate] has a pest or weed control at 70 g/ha of 95 to 100%.

Same assay, conditions: post-emergence, 336 h; ABUTH: velvetleaf (Abutilon theophrasti); application rate 140 g ai/ha; 14 days after application; read-out: Visual Growth Reduction (%) 14 Days After Application, ABUTH
COC(=O)c1nc(-c2ccc(Br)c(F)c2F)cc(N)c1Cl [Compound 114, methyl 4-amino-6-(4-bromo-2,3-difluorophenyl)-3-chloropicolinate] showed a pest or weed control at 140 g/ha of 95 to 100%.

Same assay, conditions: post-emergence, 336 h; AMARE: redroot pigweed (Amaranthus retroflexus); application rate 70 g ai/ha; 14 days after application; read-out: Visual Growth Reduction (%) 14 Days After Application, AMARE
COC(=O)c1nc(-c2ccc(Br)c(F)c2F)cc(N)c1Cl [Compound 114, methyl 4-amino-6-(4-bromo-2,3-difluorophenyl)-3-chloropicolinate] showed a pest or weed control at 70 g/ha of 95 to 100%.

Same assay, conditions: post-emergence, 336 h; AMARE: redroot pigweed (Amaranthus retroflexus); application rate 140 g ai/ha; 14 days after application; read-out: Visual Growth Reduction (%) 14 Days After Application, AMARE
Work on COC(=O)c1nc(-c2ccc(Br)c(F)c2F)cc(N)c1Cl [Compound 114, methyl 4-amino-6-(4-bromo-2,3-difluorophenyl)-3-chloropicolinate] yielded a pest or weed control at 140 g/ha of 95 to 100%.

Same assay, conditions: post-emergence, 336 h; BRSNN: oilseed-rape, canola (Brassica napus); application rate 70 g ai/ha; 14 days after application; read-out: Visual Growth Reduction (%) 14 Days After Application, BRSNN
With COC(=O)c1nc(-c2ccc(Br)c(F)c2F)cc(N)c1Cl [Compound 114, methyl 4-amino-6-(4-bromo-2,3-difluorophenyl)-3-chloropicolinate] the pest or weed control at 70 g/ha was 85 to 94%.

Same assay, conditions: post-emergence, 336 h; BRSNN: oilseed-rape, canola (Brassica napus); application rate 140 g ai/ha; 14 days after application; read-out: Visual Growth Reduction (%) 14 Days After Application, BRSNN
In the case of COC(=O)c1nc(-c2ccc(Br)c(F)c2F)cc(N)c1Cl [Compound 114, methyl 4-amino-6-(4-bromo-2,3-difluorophenyl)-3-chloropicolinate], the pest or weed control at 140 g/ha is reported as 95 to 100%.

Same assay, conditions: post-emergence, 336 h; CHEAL: lambsquarters (Chenopodium album); application rate 70 g ai/ha; 14 days after application; read-out: Visual Growth Reduction (%) 14 Days After Application, CHEAL
Work on COC(=O)c1nc(-c2ccc(Br)c(F)c2F)cc(N)c1Cl [Compound 114, methyl 4-amino-6-(4-bromo-2,3-difluorophenyl)-3-chloropicolinate] yielded a pest or weed control at 70 g/ha of 95 to 100%.

Same assay, conditions: post-emergence, 336 h; CHEAL: lambsquarters (Chenopodium album); application rate 140 g ai/ha; 14 days after application; read-out: Visual Growth Reduction (%) 14 Days After Application, CHEAL
COC(=O)c1nc(-c2ccc(Br)c(F)c2F)cc(N)c1Cl [Compound 114, methyl 4-amino-6-(4-bromo-2,3-difluorophenyl)-3-chloropicolinate] was tested, and the pest or weed control at 140 g/ha was 95 to 100%.

Same assay, conditions: post-emergence, 336 h; EPHHL: wild poinsettia (Euphorbia heterophylla); application rate 70 g ai/ha; 14 days after application; read-out: Visual Growth Reduction (%) 14 Days After Application, EPHHL
In the case of COC(=O)c1nc(-c2ccc(Br)c(F)c2F)cc(N)c1Cl [Compound 114, methyl 4-amino-6-(4-bromo-2,3-difluorophenyl)-3-chloropicolinate], the pest or weed control at 70 g/ha is reported as 95 to 100%.

Same assay, conditions: post-emergence, 336 h; EPHHL: wild poinsettia (Euphorbia heterophylla); application rate 140 g ai/ha; 14 days after application; read-out: Visual Growth Reduction (%) 14 Days After Application, EPHHL
COC(=O)c1nc(-c2ccc(Br)c(F)c2F)cc(N)c1Cl [Compound 114, methyl 4-amino-6-(4-bromo-2,3-difluorophenyl)-3-chloropicolinate] gave a pest or weed control at 140 g/ha of 95 to 100%.

Same assay, conditions: post-emergence, 336 h; HELAN: sunflower (Helianthus annuus); application rate 70 g ai/ha; 14 days after application; read-out: Visual Growth Reduction (%) 14 Days After Application, HELAN
For COC(=O)c1nc(-c2ccc(Br)c(F)c2F)cc(N)c1Cl [Compound 114, methyl 4-amino-6-(4-bromo-2,3-difluorophenyl)-3-chloropicolinate], the pest or weed control at 70 g/ha was 95 to 100%.

Same assay, conditions: post-emergence, 336 h; HELAN: sunflower (Helianthus annuus); application rate 140 g ai/ha; 14 days after application; read-out: Visual Growth Reduction (%) 14 Days After Application, HELAN
For COC(=O)c1nc(-c2ccc(Br)c(F)c2F)cc(N)c1Cl [Compound 114, methyl 4-amino-6-(4-bromo-2,3-difluorophenyl)-3-chloropicolinate], the pest or weed control at 140 g/ha was 95 to 100%.

Same assay, conditions: post-emergence, 336 h; VIOTR: wild pansy (Viola tricolor); application rate 70 g ai/ha; 14 days after application; read-out: Visual Growth Reduction (%) 14 Days After Application, VIOTR
Molecule COC(=O)c1nc(-c2ccc(Br)c(F)c2F)cc(N)c1Cl [Compound 114, methyl 4-amino-6-(4-bromo-2,3-difluorophenyl)-3-chloropicolinate] has a pest or weed control at 70 g/ha of 95 to 100%.

Same assay, conditions: post-emergence, 336 h; VIOTR: wild pansy (Viola tricolor); application rate 140 g ai/ha; 14 days after application; read-out: Visual Growth Reduction (%) 14 Days After Application, VIOTR
Molecule COC(=O)c1nc(-c2ccc(Br)c(F)c2F)cc(N)c1Cl [Compound 114, methyl 4-amino-6-(4-bromo-2,3-difluorophenyl)-3-chloropicolinate] has a pest or weed control at 140 g/ha of 95 to 100%.

Each molecule was assayed on Key Grass and Sedge Weeds as well as Grass Crops (assay: Post-emergent Test II herbicidal activity (Table 6)). Conditions: post-emergence, 336 h, CYPES: yellow nutsedge (Cyperus esculentus), 70 g ai/ha, read-out: Visual Growth Reduction (%) 14 Days After Application, CYPES.
Format: in vivo
Method in brief: as §1
COC(=O)c1nc(-c2ccc(Br)c(F)c2F)cc(N)c1Cl [Compound 114, methyl 4-amino-6-(4-bromo-2,3-difluorophenyl)-3-chloropicolinate] gave a pest or weed control at 70 g/ha of 95 to 100%.

Same assay, conditions: post-emergence, 336 h, CYPES: yellow nutsedge (Cyperus esculentus), 140 g ai/ha, read-out: Visual Growth Reduction (%) 14 Days After Application, CYPES
Molecule COC(=O)c1nc(-c2ccc(Br)c(F)c2F)cc(N)c1Cl [Compound 114, methyl 4-amino-6-(4-bromo-2,3-difluorophenyl)-3-chloropicolinate] has a pest or weed control at 140 g/ha of 95 to 100%.

Same assay, conditions: post-emergence, 336 h, DIGSA: crabgrass (Digitaria sanguinalis), 70 g ai/ha, read-out: Visual Growth Reduction (%) 14 Days After Application, DIGSA
With COC(=O)c1nc(-c2ccc(Br)c(F)c2F)cc(N)c1Cl [Compound 114, methyl 4-amino-6-(4-bromo-2,3-difluorophenyl)-3-chloropicolinate] the pest or weed control at 70 g/ha was 60 to 74%.

Same assay, conditions: post-emergence, 336 h, DIGSA: crabgrass (Digitaria sanguinalis), 140 g ai/ha, read-out: Visual Growth Reduction (%) 14 Days After Application, DIGSA
For COC(=O)c1nc(-c2ccc(Br)c(F)c2F)cc(N)c1Cl [Compound 114, methyl 4-amino-6-(4-bromo-2,3-difluorophenyl)-3-chloropicolinate], the pest or weed control at 140 g/ha was 60 to 74%.

Same assay, conditions: post-emergence, 336 h, ECHCG: barnyardgrass (Echinochloa crus-galli), 70 g ai/ha, read-out: Visual Growth Reduction (%) 14 Days After Application, ECHCG
Molecule COC(=O)c1nc(-c2ccc(Br)c(F)c2F)cc(N)c1Cl [Compound 114, methyl 4-amino-6-(4-bromo-2,3-difluorophenyl)-3-chloropicolinate] has a pest or weed control at 70 g/ha of 95 to 100%.

Same assay, conditions: post-emergence, 336 h, ECHCG: barnyardgrass (Echinochloa crus-galli), 140 g ai/ha, read-out: Visual Growth Reduction (%) 14 Days After Application, ECHCG
Molecule COC(=O)c1nc(-c2ccc(Br)c(F)c2F)cc(N)c1Cl [Compound 114, methyl 4-amino-6-(4-bromo-2,3-difluorophenyl)-3-chloropicolinate] has a pest or weed control at 140 g/ha of 95 to 100%.

Same assay, conditions: post-emergence, 336 h, ORYSA: rice (Oryza sativa), crop, 70 g ai/ha, read-out: Visual Growth Reduction (%) 14 Days After Application, ORYSA
In the case of COC(=O)c1nc(-c2ccc(Br)c(F)c2F)cc(N)c1Cl [Compound 114, methyl 4-amino-6-(4-bromo-2,3-difluorophenyl)-3-chloropicolinate], the pest or weed control at 70 g/ha is reported as 0 to 29%.

Same assay, conditions: post-emergence, 336 h, ORYSA: rice (Oryza sativa), crop, 140 g ai/ha, read-out: Visual Growth Reduction (%) 14 Days After Application, ORYSA
In the case of COC(=O)c1nc(-c2ccc(Br)c(F)c2F)cc(N)c1Cl [Compound 114, methyl 4-amino-6-(4-bromo-2,3-difluorophenyl)-3-chloropicolinate], the pest or weed control at 140 g/ha is reported as 0 to 29%.

Same assay, conditions: post-emergence, 336 h, SETFA: giant foxtail (Setaria faberi), 70 g ai/ha, read-out: Visual Growth Reduction (%) 14 Days After Application, SETFA
Work on COC(=O)c1nc(-c2ccc(Br)c(F)c2F)cc(N)c1Cl [Compound 114, methyl 4-amino-6-(4-bromo-2,3-difluorophenyl)-3-chloropicolinate] yielded a pest or weed control at 70 g/ha of 60 to 74%.

Same assay, conditions: post-emergence, 336 h, SETFA: giant foxtail (Setaria faberi), 140 g ai/ha, read-out: Visual Growth Reduction (%) 14 Days After Application, SETFA
For COC(=O)c1nc(-c2ccc(Br)c(F)c2F)cc(N)c1Cl [Compound 114, methyl 4-amino-6-(4-bromo-2,3-difluorophenyl)-3-chloropicolinate], the pest or weed control at 140 g/ha was 75 to 84%.

Same assay, conditions: post-emergence, 336 h, SORVU: grain sorghum (Sorghum vulgare), 70 g ai/ha, read-out: Visual Growth Reduction (%) 14 Days After Application, SORVU
In the case of COC(=O)c1nc(-c2ccc(Br)c(F)c2F)cc(N)c1Cl [Compound 114, methyl 4-amino-6-(4-bromo-2,3-difluorophenyl)-3-chloropicolinate], the pest or weed control at 70 g/ha is reported as 95 to 100%.

Same assay, conditions: post-emergence, 336 h, SORVU: grain sorghum (Sorghum vulgare), 140 g ai/ha, read-out: Visual Growth Reduction (%) 14 Days After Application, SORVU
For COC(=O)c1nc(-c2ccc(Br)c(F)c2F)cc(N)c1Cl [Compound 114, methyl 4-amino-6-(4-bromo-2,3-difluorophenyl)-3-chloropicolinate], the pest or weed control at 140 g/ha was 95 to 100%.

Same assay, conditions: post-emergence, 336 h, TRZSS (wheat, Triticum aestivum), crop, 70 g ai/ha, read-out: Visual Growth Reduction (%) 14 Days After Application, TRZSS
COC(=O)c1nc(-c2ccc(Br)c(F)c2F)cc(N)c1Cl [Compound 114, methyl 4-amino-6-(4-bromo-2,3-difluorophenyl)-3-chloropicolinate] was tested, and the pest or weed control at 70 g/ha was 30 to 44%.

Same assay, conditions: post-emergence, 336 h, TRZSS (wheat, Triticum aestivum), crop, 140 g ai/ha, read-out: Visual Growth Reduction (%) 14 Days After Application, TRZSS
Work on COC(=O)c1nc(-c2ccc(Br)c(F)c2F)cc(N)c1Cl [Compound 114, methyl 4-amino-6-(4-bromo-2,3-difluorophenyl)-3-chloropicolinate] yielded a pest or weed control at 140 g/ha of 45 to 59%.

Same assay, conditions: post-emergence, 336 h, ZEAMX: maize, corn (Zea mays), crop, 70 g ai/ha, read-out: Visual Growth Reduction (%) 14 Days After Application, ZEAMX
COC(=O)c1nc(-c2ccc(Br)c(F)c2F)cc(N)c1Cl [Compound 114, methyl 4-amino-6-(4-bromo-2,3-difluorophenyl)-3-chloropicolinate] gave a pest or weed control at 70 g/ha of 85 to 94%.

Same assay, conditions: post-emergence, 336 h, ZEAMX: maize, corn (Zea mays), crop, 140 g ai/ha, read-out: Visual Growth Reduction (%) 14 Days After Application, ZEAMX
COC(=O)c1nc(-c2ccc(Br)c(F)c2F)cc(N)c1Cl [Compound 114, methyl 4-amino-6-(4-bromo-2,3-difluorophenyl)-3-chloropicolinate] gave a pest or weed control at 140 g/ha of 85 to 94%.
